# Tested on: HCI-027 (organoid from a triple-negative breast cancer xenograft)
# Assay: CTG-3D luminescence at 96 h relative to day-0 seeding control (ratio to day 0); higher = more growth / less cytotoxicity; PDxO 3D drug screen, 96 h, CTG-3D normalised to day-0 seeding control.
# Conditions: 100 µM; days in culture: 201
row,SMILES,CTG-3D luminescence at 96 h
1,O=C(O)C1(C(=O)O)CCC1.[NH2-].[NH2-].[Pt+2] [carboplatin],0.145
2,COc1cc2c(Oc3ccc4[nH]c(C)cc4c3F)ncnc2cc1OCCCN1CCCC1 [cediranib],-0.000884
3,C[C@@H]1COCCN1c1cc(C2([S@](C)(=N)=O)CC2)nc(-c2cc[nH]c3nccc2-3)n1 [ceralasertib],0.279
4,Cc1cc(Nc2ncc(Cl)c(Nc3ccccc3S(=O)(=O)C(C)C)n2)c(OC(C)C)cc1C1CCNCC1 [ceritinib],-0.00463
5,O=C(c1ccc(F)c(F)c1Nc1ccc(I)cc1F)N1CC(O)([C@@H]2CCCCN2)C1 [cobimetinib],0.0102
6,C[C@H](NC(=O)CCC(F)(F)F)C(=O)N[C@@H]1C(=O)N(CCO)c2ncccc2-c2ccccc21 [crenigacestat],0.259
7,COc1cccc2c1C(=O)c1c(O)c3c(c(O)c1C2=O)C[C@@](O)(C(=O)CO)C[C@@H]3O[C@H]1C[C@H](N)[C@H](O)[C@H](C)O1 [doxorubicin],0.0218
8,C[C@]12CC[C@@H]3c4ccc(O)cc4C[C@@H](CCCCCCCCC[S+]([O-])CCCC(F)(F)C(F)(F)F)[C@H]3[C@@H]1CC[C@@H]2O (stereo partly specified) [fulvestrant],1.85
9,Nc1ccn([C@@H]2O[C@H](CO)[C@@H](O)C2(F)F)c(=O)n1 [gemcitabine],0.104

# Same assay, conditions: 625 fM; days in culture: 176
row,SMILES,CTG-3D luminescence at 96 h
1,O=C(O)C1(C(=O)O)CCC1.[NH2-].[NH2-].[Pt+2] [carboplatin],1.72
2,COc1cc2c(Oc3ccc4[nH]c(C)cc4c3F)ncnc2cc1OCCCN1CCCC1 [cediranib],1.66
3,C[C@@H]1COCCN1c1cc(C2([S@](C)(=N)=O)CC2)nc(-c2cc[nH]c3nccc2-3)n1 [ceralasertib],2.06
4,Cc1cc(Nc2ncc(Cl)c(Nc3ccccc3S(=O)(=O)C(C)C)n2)c(OC(C)C)cc1C1CCNCC1 [ceritinib],2.34
5,O=C(c1ccc(F)c(F)c1Nc1ccc(I)cc1F)N1CC(O)([C@@H]2CCCCN2)C1 [cobimetinib],1.76
6,C[C@H](NC(=O)CCC(F)(F)F)C(=O)N[C@@H]1C(=O)N(CCO)c2ncccc2-c2ccccc21 [crenigacestat],1.6
7,COc1cccc2c1C(=O)c1c(O)c3c(c(O)c1C2=O)C[C@@](O)(C(=O)CO)C[C@@H]3O[C@H]1C[C@H](N)[C@H](O)[C@H](C)O1 [doxorubicin],1.53
8,C[C@]12CC[C@@H]3c4ccc(O)cc4C[C@@H](CCCCCCCCC[S+]([O-])CCCC(F)(F)C(F)(F)F)[C@H]3[C@@H]1CC[C@@H]2O (stereo partly specified) [fulvestrant],2.36
9,Nc1ccn([C@@H]2O[C@H](CO)[C@@H](O)C2(F)F)c(=O)n1 [gemcitabine],2.36

# Same assay, conditions: 625 fM; days in culture: 194
row,SMILES,CTG-3D luminescence at 96 h
1,O=C(O)C1(C(=O)O)CCC1.[NH2-].[NH2-].[Pt+2] [carboplatin],1.44
2,COc1cc2c(Oc3ccc4[nH]c(C)cc4c3F)ncnc2cc1OCCCN1CCCC1 [cediranib],1.47
3,C[C@@H]1COCCN1c1cc(C2([S@](C)(=N)=O)CC2)nc(-c2cc[nH]c3nccc2-3)n1 [ceralasertib],1.56
4,Cc1cc(Nc2ncc(Cl)c(Nc3ccccc3S(=O)(=O)C(C)C)n2)c(OC(C)C)cc1C1CCNCC1 [ceritinib],1.39
5,O=C(c1ccc(F)c(F)c1Nc1ccc(I)cc1F)N1CC(O)([C@@H]2CCCCN2)C1 [cobimetinib],1.65
6,C[C@H](NC(=O)CCC(F)(F)F)C(=O)N[C@@H]1C(=O)N(CCO)c2ncccc2-c2ccccc21 [crenigacestat],1.57
7,COc1cccc2c1C(=O)c1c(O)c3c(c(O)c1C2=O)C[C@@](O)(C(=O)CO)C[C@@H]3O[C@H]1C[C@H](N)[C@H](O)[C@H](C)O1 [doxorubicin],1.7
8,C[C@]12CC[C@@H]3c4ccc(O)cc4C[C@@H](CCCCCCCCC[S+]([O-])CCCC(F)(F)C(F)(F)F)[C@H]3[C@@H]1CC[C@@H]2O (stereo partly specified) [fulvestrant],1.71
9,Nc1ccn([C@@H]2O[C@H](CO)[C@@H](O)C2(F)F)c(=O)n1 [gemcitabine],1.66

# Same assay, conditions: 625 fM; days in culture: 201
row,SMILES,CTG-3D luminescence at 96 h
1,O=C(O)C1(C(=O)O)CCC1.[NH2-].[NH2-].[Pt+2] [carboplatin],1.71
2,COc1cc2c(Oc3ccc4[nH]c(C)cc4c3F)ncnc2cc1OCCCN1CCCC1 [cediranib],1.9
3,C[C@@H]1COCCN1c1cc(C2([S@](C)(=N)=O)CC2)nc(-c2cc[nH]c3nccc2-3)n1 [ceralasertib],1.54
4,Cc1cc(Nc2ncc(Cl)c(Nc3ccccc3S(=O)(=O)C(C)C)n2)c(OC(C)C)cc1C1CCNCC1 [ceritinib],1.31
5,O=C(c1ccc(F)c(F)c1Nc1ccc(I)cc1F)N1CC(O)([C@@H]2CCCCN2)C1 [cobimetinib],2.09
6,C[C@H](NC(=O)CCC(F)(F)F)C(=O)N[C@@H]1C(=O)N(CCO)c2ncccc2-c2ccccc21 [crenigacestat],1.97
7,COc1cccc2c1C(=O)c1c(O)c3c(c(O)c1C2=O)C[C@@](O)(C(=O)CO)C[C@@H]3O[C@H]1C[C@H](N)[C@H](O)[C@H](C)O1 [doxorubicin],2.05
8,C[C@]12CC[C@@H]3c4ccc(O)cc4C[C@@H](CCCCCCCCC[S+]([O-])CCCC(F)(F)C(F)(F)F)[C@H]3[C@@H]1CC[C@@H]2O (stereo partly specified) [fulvestrant],2.4
9,Nc1ccn([C@@H]2O[C@H](CO)[C@@H](O)C2(F)F)c(=O)n1 [gemcitabine],2.28

# Reference: the supplement of paper PMC8882468
